Key:
PPAR-gamma = molecular target: T1, PPAR-gamma (Homo sapiens, UniProt P37231); settings: Rocchi et al, Mol Cell 8:737-47, 2001; cited from earlier work
T1 sequence (P37231 1-505): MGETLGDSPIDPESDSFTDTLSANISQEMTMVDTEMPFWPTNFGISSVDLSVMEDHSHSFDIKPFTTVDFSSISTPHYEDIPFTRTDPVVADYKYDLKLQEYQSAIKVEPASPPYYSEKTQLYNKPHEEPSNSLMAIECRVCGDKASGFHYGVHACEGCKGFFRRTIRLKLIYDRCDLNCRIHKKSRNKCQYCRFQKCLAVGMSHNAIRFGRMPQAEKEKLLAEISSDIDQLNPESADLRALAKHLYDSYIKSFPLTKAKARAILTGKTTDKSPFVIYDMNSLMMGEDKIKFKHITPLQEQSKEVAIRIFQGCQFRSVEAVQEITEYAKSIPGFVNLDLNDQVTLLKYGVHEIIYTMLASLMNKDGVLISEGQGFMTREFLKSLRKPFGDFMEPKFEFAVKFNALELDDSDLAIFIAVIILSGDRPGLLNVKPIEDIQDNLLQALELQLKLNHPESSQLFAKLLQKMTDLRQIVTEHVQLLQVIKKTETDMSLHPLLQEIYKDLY

3T3-L1 adipocytes = assay: Glucose uptake in differentiated 3T3-L1 adipocytes; assay type: cell-based
Procedure: Referring to FIG. 8 glucose uptake in 3T3-L1 differentiated adipocytes was measured after treatment with the test compound. The assay was conducted according to the method of Tafuri, Endocrinology, 137, 4706-4712 (1996). The serum-starved cells were treated with the test compound for 48 hours at different concentrations, then washed and incubated in glucose-free media for 30 minutes at 37° C. Then ^14C-deoxyglucose was added and uptake was monitored for 30 minutes under incubation. After washing, the cells were lysed (0.1% SIDS) and counted.
Basal glucose uptake was measured in differentiated 3T3-L1 adipocytes following the protocol of Tafuri (6) with modifications. Briefly, 3T3-L1 fibroblasts, obtained from ATCC (Manassas, Va.), were differentiated to adipocytes by treating cells with porcine insulin (1 μg/ml for 4 days), dexamethasone (0.25 μM for first 2 days) and isobutyl methyl xanthine (IBMX, 0.5 mM for first 2 days) (all from Sigma Chemicals, St Louis, Mo.) following the protocol of Frost and Lane (7). Differentiated adipocytes were incubated in Dulbecco's Modified Eagle Medium (DMEM) containing 10% fetal bovine serum (GibcoBRL, Gaithersburg, Md.) with various concentrations of Compound 11 or vehicle (0.1% DMSO) for 48 h in 24-well plates, in triplicate. Cells were washed with phosphate buffered saline (PBS, 150 mM NaCl, 1 mM KH2PO4, 3 mM Na2HPO4; pH 7.4) and incubated in glucose-free DMEM for 2 h at 37° C. The cells were washed 3 times with Krebs Ringer Phosphate Buffer (KRP). Glucose uptake was initiated by addition of 0.25 μCi 2-^14C(U)-deoxy-D-glucose (300 μCi/mmol, American Radiolabeled Chemicals Inc., St Louis, Mo.) per well and the cells incubated for 10 min at room temperature in the presence of 0.1 mmol cold 2-deoxy-D-glucose. Finally, the cells were washed three times with ice-cold PBS containing 10 mM cold glucose, lysed with 0.5% SDS, and counted in a scintillation counter (Beckman LS6500).

COX-2 = molecular target: T2, COX-2 (Mus musculus, UniProt Q05769); assay: LPS-induced COX-2 activity in RAW cells (PGE2 production); assay type: cell-based; settings: 0.1-100 μM, FIG. 12
T2 sequence (Q05769 18-604): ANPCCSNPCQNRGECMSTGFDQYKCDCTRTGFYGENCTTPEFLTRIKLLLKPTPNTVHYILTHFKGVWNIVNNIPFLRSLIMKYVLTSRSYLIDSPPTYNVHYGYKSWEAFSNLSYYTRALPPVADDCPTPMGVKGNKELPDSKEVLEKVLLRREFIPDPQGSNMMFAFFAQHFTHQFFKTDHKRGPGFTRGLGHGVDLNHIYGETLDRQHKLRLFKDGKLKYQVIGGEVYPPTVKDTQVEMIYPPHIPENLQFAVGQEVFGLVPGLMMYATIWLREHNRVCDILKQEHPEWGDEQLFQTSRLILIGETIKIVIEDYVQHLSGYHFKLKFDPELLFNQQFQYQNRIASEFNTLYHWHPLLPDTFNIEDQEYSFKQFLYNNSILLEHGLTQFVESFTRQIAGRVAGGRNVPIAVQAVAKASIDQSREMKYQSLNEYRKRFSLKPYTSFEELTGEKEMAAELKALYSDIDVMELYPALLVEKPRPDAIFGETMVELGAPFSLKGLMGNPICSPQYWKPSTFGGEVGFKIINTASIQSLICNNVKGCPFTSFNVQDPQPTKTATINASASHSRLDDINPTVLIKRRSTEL
Procedure: (§1) After 1 hour LPS (0.1 pg/mL) was added and cells were incubated an additional 6 hours. Cell supernatant was then collected, aliquoted and frozen at −70° C., and aliquots used to determine COX-2 and COX-1 activity. Compound 11, but not rosiglitazone, inhibited the activity of COX-2 (as measured by PGE2 production in a 50 μl sample).

COX-1 = molecular target: T3, COX-1 (Mus musculus, UniProt P22437); assay: COX-1 activity in RAW cells; assay type: cell-based; settings: 0.1-100 μM
T3 construct: aliquots used to determine COX-2 and COX-1 activity; endogenous in cells; host or cells: RAW (RAW 264.7) cells
T3 sequence (P22437 27-602): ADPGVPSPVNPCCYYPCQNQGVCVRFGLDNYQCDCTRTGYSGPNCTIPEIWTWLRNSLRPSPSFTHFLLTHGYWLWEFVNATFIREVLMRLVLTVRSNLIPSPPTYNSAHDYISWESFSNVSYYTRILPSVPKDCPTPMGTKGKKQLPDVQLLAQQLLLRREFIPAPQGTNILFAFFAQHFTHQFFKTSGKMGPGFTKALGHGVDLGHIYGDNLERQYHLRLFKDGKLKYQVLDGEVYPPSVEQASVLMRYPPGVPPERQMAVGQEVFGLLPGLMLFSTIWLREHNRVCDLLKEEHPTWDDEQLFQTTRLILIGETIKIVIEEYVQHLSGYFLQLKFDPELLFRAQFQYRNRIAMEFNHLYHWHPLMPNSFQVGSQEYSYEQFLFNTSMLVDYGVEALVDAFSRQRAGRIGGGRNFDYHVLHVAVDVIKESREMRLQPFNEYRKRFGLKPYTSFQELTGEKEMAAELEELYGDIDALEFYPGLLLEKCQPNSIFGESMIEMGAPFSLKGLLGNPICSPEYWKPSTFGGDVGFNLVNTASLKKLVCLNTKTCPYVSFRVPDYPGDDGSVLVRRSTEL
Procedure: as §1

IkappaB = assay: LPS-stimulated phosphorylation of IkappaB in RAW 264.7 cells; assay type: cell-based; settings: RAW 264.7 cells, 3, 10 or 30, LPS plus IFN-gamma, anti-phospho-IkappaB blot
NF-kB p65 = NF-kB p65 activation in LPS-stimulated RAW cells (ELISA); assay type: cell-based; settings: 10 μM, 1 μg/ml LPS 15 min, FIG. 15
HepG2 cells = assay: Glycogen synthesis in HepG2 cells; assay type: cell-based
db/db mice = settings: db/db mice, 50 mg/kg/day orally, 14 days, FIG. 16A
3T3-L1 fibroblasts = assay: Adipogenesis (triglyceride accumulation) in 3T3-L1 fibroblasts; settings: 3T3-L1 fibroblasts, 0.1, 1, 10 μM, no dexamethasone, insulin, IBMX, FIG. 23A
Procedure: After two days of growth in 6-well plates, cells were treated either with vehicle (0.1% DMSO) or with compounds for ten days. Fresh medium with compounds or vehicle was replenished every 48 h. Cells were washed with PBS twice and fixed in 10% formalin (Sigma) in PBS. After washing in PBS, cells were stained with freshly diluted Oil Red O in isopropanol for 1 h at room temperature. The cells were washed five times with PBS and visualized under an Olympus BH2 microscope. Quantitative accumulation of triglyceride was also measured under similar experimental conditions, except in this case cells were plated in 100-mm tissue culture dishes. Triglyceride was extracted with methanol:chloroform (2:1) mixture. […] Extracted triglyceride was measured by a colorimetric assay (GPO-Trinder, Sigma) according to manufacturer instructions.
After 14 days cells were stained with Oil Red O, counterstained with methylene blue for visual assessment (FIG. 23B) and assayed for triglyceride accumulation.

Structure (SMILES) | less affinity for PPAR-gamma (PPAR-gamma) | effect on insulin-stimulated glucose uptake (3T3-L1 adipocytes; 5 μM with increasing insulin, FIG. 20B) | % Glucose uptake 0.1 μm (3T3-L1 adipocytes; 0.1 μm, average of quadruplicate ± SD) | % Glucose uptake 1.0 μm (3T3-L1 adipocytes; 1.0 μm, average of quadruplicate ± SD) | inhibition of COX-2 activity (PGE2 production) (COX-2) | inhibition of COX-1 activity (COX-1) | inhibition of the phosphorylation of IkappaB (IkappaB) | inhibition of the activation of NF-kB (p65) (NF-kB p65) | glycogen synthesis, decrease (HepG2 cells; HepG2, 10 μM, 48 h, FIG. 25A) | increase in glycogen synthesis over baseline (HepG2 cells; HepG2, concentrations higher than 30 μM, ± SD, data not shown) | blood glucose lowering effect (db/db mice) | maximal triglyceride accumulated, increase over control (3T3-L1 fibroblasts)
CC(C)C[C@H](NC(=O)OCC1c2ccccc2-c2ccccc21)C(=O)O [FMOC-L-Leucine] | approximately 400 fold | – | – | – | – | – | – | – | – | – | – | –
CN(CCOc1ccc(CC2SC(=O)NC2=O)cc1)c1ccccn1 (stereo not drawn) [rosiglitazone, reference compound] | – | additive, not synergistic | 204.2 ± 8.5 % basal of the non treated cells | 214.7 ± 36.5 % basal of the non treated cells | not | Neither compound inhibited | not | did not inhibit | 0.9 fold | 1.4±0.06 fold | dramatic, comparable blood glucose lowering effects | 9.22 fold

From patent US20060235062A1, “Novel heterocyclic analogs of diphenylethylene compounds” (THERACOS, INC., priority 2002, published 2006)
